Measured values published in patent EP0552417B1, “Cyclic peptides and use thereof” (priority 1991, dated 1993).

Conditions: amide bond; 18-membered ring; HONB/DCC (preactivation); HCl/dioxane; TEA; DMF; 9.5 mM; 3 steps

cyclo[-D-Asp(OBzl)-Hyp(Bzl)-Asp(OBzl)-D-Leu-Leu-D-Trp-]
ring closure, isolated yield: 82.6%
